Test results reported in US8324380B2, “Amino-heteroaryl-containing prokineticin 1 receptor antagonists” (Janssen Pharmaceutica NV, priority 2007, dated 2012).
Several values for one entry are separate records, joined by “and”; a condition that tells them apart may be missing. Equal entries are not always repeated. Where two headings read alike, the source gives them in different places.

Tests used:
[1] = tested on: rat ileal tissues; experiment: PK1-evoked short-circuit current (Isc) in rat ileum mucosa, Ussing-type flux chambers
[2] = biological target: T1, GPR73 (prokineticin 1 receptor) (Homo sapiens, UniProt Q8TCW9); experiment: PK1 functional assay: Ca2+ mobilization on the FLIPR; assay type: cell-based; conditions: for inhibition at 10 µM: read-out: Ca^2+ Mobilization % Inh @10 µM; for IC50: HEK 293 GPR73 cells, read-out: Ca^2+ Mobilization IC50
T1 construct: expressed in transfected cells; host or cells: HEK 293
T1 sequence (Q8TCW9 whole entry, species assumed): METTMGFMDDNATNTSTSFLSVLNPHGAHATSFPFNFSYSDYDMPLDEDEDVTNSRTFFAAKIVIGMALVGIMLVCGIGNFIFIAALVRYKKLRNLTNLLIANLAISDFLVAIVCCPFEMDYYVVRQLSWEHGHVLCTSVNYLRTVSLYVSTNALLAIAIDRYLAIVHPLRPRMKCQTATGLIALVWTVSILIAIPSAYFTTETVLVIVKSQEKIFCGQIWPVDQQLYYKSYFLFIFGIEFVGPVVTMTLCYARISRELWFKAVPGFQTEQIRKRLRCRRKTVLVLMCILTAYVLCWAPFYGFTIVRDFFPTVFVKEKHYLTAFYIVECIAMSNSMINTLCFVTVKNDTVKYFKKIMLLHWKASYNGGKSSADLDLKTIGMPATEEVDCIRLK
Protocol: At a time of 24 h prior to running the assay, in cell culture media (DMEM containing high Glucose and L-glutamine, 10% FBS, 1% Pen/Streptomycin, 1% Sodium Pyruvate, 20 mM HEPES, Zeocin 200 mg/L), 100 µL of 1.3*10^6/ml HEK 293 GPR73 (prokineticin 1 receptor) expressing cells were plated in a 96 well poly-d-lysine coated plate (Costar), and incubated at 37° C. and 5% CO2. On the day in which the assay was run, the media was removed and 200 µL of 5× Calcium Plus Dye (Molecular Devices) which was previously resuspended with 200 mL of assay buffer [HBSS w/Ca^2+ and Mg^2+ w/o phenol red, 20 mM HEPES, 0.1% BSA, 10 mL probenecid (710 mg probenecid in 5 mL of 1N NaOH, to which was then added 5 mL HBSS containing 20 mM HEPES)] was added to each well of the 96-well plate. The plate was incubated at 37° C. and 5% CO2 for 30 min in dark. The plate was removed and allowed to reach RT for 15 min in the dark. The assay was then run on the FLIPR. In Brief: base line read for 1 min, compound added (25 μL) and incubated for 4 min, 15 seconds, PK1 ligand preparation added (25 μL) for a final concentration of a previously determined EC50 and fluorescence was counted for 1 min, 45 seconds. Baseline is described as the amount of relative fluorescence read when buffer alone is added to cells. Baseline was subtracted from all wells. Percent of control was calculated as follows: (Baseline subtracted well value is divided by baseline subtracted max value)*100. Percent inhibition is 100 minus the percent of control value.
The IC50 is defined as the amount of a given compound required to inhibit 50% of the maximum signal that is generated by the concentration of PK1 preparation used in our assay. IC50 values were calculated using GraphPad Prism.

[3] = tested on: ileum mucosal tissues from PK1 receptor knock-out mice; experiment: PK1-evoked Isc in ileum mucosal tissues from PK1 receptor knock-out mice; conditions: exogenous PK1 peptide

Row | Molecule | inhibition at 10 µM ([2]; 10 µM) [%] | IC50 [2] | other results
1 | CN1[C@@H]2CC[C@H]1C[C@@H](OC(=O)C(CO)c1ccccc1)C2 (stereo partly shown) [Atropine, reference compound] | – | – | blockade of the pro-secretory effect of PK1 [1]: not blocked
2 | Nc1ncc(CCNc2nc(=O)n(Cc3ccc(F)cc3)c(=O)n2Cc2ccc(OC(F)(F)F)cc2)[nH]1 [Cpd 54, 6-[2-(2-Amino-3H-imidazol-4-yl)-ethylamino]-3-(4-fluoro-benzyl)-1-(4-trifluoromethoxy-benzyl)-1H-[1,3,5]triazine-2,4-dione] | 96 | 27 nM and 183 nM | inhibition at 10 µM ([2]; 10 µM, (further determination)): 95%; IC50 ([2]; IC50 (further determination)): 97 nM
3 | COc1cccc2c1nc(N)n2CCNc1nc(=O)n(Cc2ccc(F)cc2)c(=O)n1Cc1ccc(OC(F)F)cc1 [Cpd 55] | 91 | 233 nM | –
4 | NC1=Nc2ccc(O)cc2CN1CCNc1nc(=O)n(Cc2ccc(F)cc2)c(=O)n1Cc1ccc(OC(F)F)cc1 [Cpd 56] | 100 | 161 nM | –
5 | COc1ccc2c(c1)N=C(N)N(CCNc1nc(=O)n(Cc3ccc(F)cc3)c(=O)n1Cc1ccc(OC(F)F)cc1)C2 [Cpd 57] | 95 | 144 nM | –
6 | COc1ccc(Cn2c(NCCc3cnc(N)[nH]3)nc(=O)n(Cc3ccc(Cl)c(Cl)c3)c2=O)cc1 [Cpd 59] | 96 | 49 nM | –
7 | CCc1ccc(Cn2c(=O)nc(NCCc3cnc(N)[nH]3)n(Cc3ccc(OC)cc3)c2=O)cc1 [Cpd 60] | 85 | 295 nM | –
8 | COc1ccc(Cn2c(NCCc3cnc(N)[nH]3)nc(=O)n(Cc3ccc(SC)cc3)c2=O)cc1 [Cpd 61] | 101 | 21 nM | inhibition at 10 µM ([2]; 10 µM, (further determination)): 102%; IC50 ([2]; IC50 (further determination)): 19 nM
9 | COc1ccc(Cn2c(NCCc3cnc(N)[nH]3)nc(=O)n(Cc3ccc4c(c3)CCO4)c2=O)cc1 [Cpd 62] | 97 | 241 nM | –
10 | Nc1ncc(CCNc2nc(=O)n(Cc3ccc(Cl)c(Cl)c3)c(=O)n2Cc2ccc3c(c2)CCO3)[nH]1 [Cpd 63] | 54 | 2010 nM | –
11 | CSc1ccc(Cn2c(=O)nc(NCCc3cnc(N)[nH]3)n(Cc3ccc4c(c3)CCO4)c2=O)cc1 [Cpd 64] | 93 | 170 nM | –
12 | CCc1ccc(Cn2c(=O)nc(NCCc3cnc(N)[nH]3)n(Cc3ccc4c(c3)CCO4)c2=O)cc1 [Cpd 65] | 35 | > 10000 nM | –
13 | Nc1ncc(CCNc2nc(=O)n(Cc3ccc4c(c3)CCO4)c(=O)n2Cc2ccc3c(c2)CCO3)[nH]1 [Cpd 66] | 69 | 2420 nM | –
14 | COc1ccc(Cn2c(NCCc3cnc(N)[nH]3)nc(=O)n(Cc3ccc4c(c3)nnn4C)c2=O)cc1 [Cpd 67] | 93 | 171 nM | –
15 | Cn1nnc2cc(Cn3c(=O)nc(NCCc4cnc(N)[nH]4)n(Cc4ccc5c(c4)CCO5)c3=O)ccc21 [Cpd 68] | 78 | 1410 nM | –
16 | COc1ccc(Cn2c(NCCn3c(N)nc4ccccc43)nc(=O)n(Cc3ccc(Cl)c(Cl)c3)c2=O)cc1 [Cpd 69] | 102 | 66 nM | –
17 | COc1ccc(Cn2c(NCCn3c(N)nc4ccccc43)nc(=O)n(Cc3ccc(SC)cc3)c2=O)cc1 [Cpd 70] | 103 | 22 nM | –
18 | CCc1ccc(Cn2c(=O)nc(NCCn3c(N)nc4ccccc43)n(Cc3ccc(OC)cc3)c2=O)cc1 [Cpd 71] | 101 | 90 nM | –

Row | Molecule | inhibition at 10 µM ([2]; 10 µM) [%] | IC50 [2] | other results
19 | COc1ccc(Cn2c(NCCn3c(N)nc4ccccc43)nc(=O)n(Cc3ccc4c(c3)CCO4)c2=O)cc1 [Cpd 72] | 102 | 58 nM | –
20 | Nc1nc2ccccc2n1CCNc1nc(=O)n(Cc2ccc(Cl)c(Cl)c2)c(=O)n1Cc1ccc2c(c1)CCO2 [Cpd 73] | 90 | 186 nM | –
21 | CSc1ccc(Cn2c(=O)nc(NCCn3c(N)nc4ccccc43)n(Cc3ccc4c(c3)CCO4)c2=O)cc1 [Cpd 74] | 102 | 34 nM | –
22 | CCc1ccc(Cn2c(=O)nc(NCCn3c(N)nc4ccccc43)n(Cc3ccc4c(c3)CCO4)c2=O)cc1 [Cpd 75] | 83 | 507 nM | –
23 | Nc1nc2ccccc2n1CCNc1nc(=O)n(Cc2ccc3c(c2)CCO3)c(=O)n1Cc1ccc2c(c1)CCO2 [Cpd 76] | 97 | 225 nM | –
24 | COc1ccc(Cn2c(NCCn3c(N)nc4ccccc43)nc(=O)n(Cc3ccc4c(c3)nnn4C)c2=O)cc1 [Cpd 77] | 99 | 55 nM | –
25 | Cn1nnc2cc(Cn3c(=O)nc(NCCn4c(N)nc5ccccc54)n(Cc4ccc5c(c4)CCO5)c3=O)ccc21 [Cpd 78] | 102 | 66 nM | inhibition at 10 µM ([2]; 10 µM, (further determination)): 104%; IC50 ([2]; IC50 (further determination)): 130 nM
26 | Nc1ncc(CCNc2nc(=O)n(Cc3ccc(Cl)c(Cl)c3)c(=O)n2Cc2ccc(OC(F)F)cc2)[nH]1 [Cpd 79] | 96 | 102 nM | –
27 | CSc1ccc(Cn2c(=O)nc(NCCc3cnc(N)[nH]3)n(Cc3ccc(OC(F)F)cc3)c2=O)cc1 [Cpd 80] | 98 | 32 nM | –
28 | CCc1ccc(Cn2c(=O)nc(NCCc3cnc(N)[nH]3)n(Cc3ccc(OC(F)F)cc3)c2=O)cc1 [Cpd 81] | 90 | 502 nM | –
29 | Nc1ncc(CCNc2nc(=O)n(Cc3ccc4c(c3)CCO4)c(=O)n2Cc2ccc(OC(F)F)cc2)[nH]1 [Cpd 82] | 96 | 202 nM | –
30 | Cn1nnc2cc(Cn3c(=O)nc(NCCc4cnc(N)[nH]4)n(Cc4ccc(OC(F)F)cc4)c3=O)ccc21 [Cpd 83] | 98 | 224 nM | –
31 | Nc1nc2ccccc2n1CCNc1nc(=O)n(Cc2ccc(Cl)c(Cl)c2)c(=O)n1Cc1ccc(OC(F)F)cc1 [Cpd 84] | 97 | 345 nM | –
32 | CSc1ccc(Cn2c(=O)nc(NCCn3c(N)nc4ccccc43)n(Cc3ccc(OC(F)F)cc3)c2=O)cc1 [Cpd 85] | 99 | 157 nM | –
33 | CCc1ccc(Cn2c(=O)nc(NCCn3c(N)nc4ccccc43)n(Cc3ccc(OC(F)F)cc3)c2=O)cc1 [Cpd 86] | 94 | 337 nM | –
34 | Nc1nc2ccccc2n1CCNc1nc(=O)n(Cc2ccc3c(c2)CCO3)c(=O)n1Cc1ccc(OC(F)F)cc1 [Cpd 87] | 102 | 223 nM | –
35 | NC1=N[C@H](O)[C@H]2[C@H]3O[C@]4(O)O[C@@H]([C@@H](O)[C@@]2(N1)[C@@H]4O)[C@]3(O)CO [Tetrodotoxin, reference compound] | – | – | blockade of the pro-secretory effect of PK1 [1]: not blocked
36 | PK1: Recombinant human prokineticin-1 expressed in HEK 293 cells; preparation holds full-length ligand and a four C-terminal residue truncated product (protein, UniProt P58294 20-105, looked up, mixture with C-terminally truncated product, Recombinant human prokineticin-1 expressed in HEK 293 cells; preparation holds full-length ligand and a four C-terminal residue truncated product) Prokineticin-1: AVITGACERDVQCGAGTCCAISLWLRGLRMCTPLGREGEECHPGSHKVPFFRKRKHHTCPCLPNLLCSRFPDGRYRCSMDLKNINF | – | – | change in Isc compared to wild-type littermates [3]: failed to elicit a significant change; effect on tissue conductance (G) [1]: no significant effect; increase in Isc from baseline ([1]; 10 nM PK1): 13.5±2. […]A/cm^2; increase in Isc from baseline ([1]; 100 nM PK1): 28.7±2.9 µA/cm^2; EC50 ([1]; read-out: EC50 of PK1-evoked increases in Isc, cumulative concentration-response, basolateral addition): ~8.2 nM
